Source: ChEMBL document CHEMBL5252592, “Design, synthesis, and biological activity evaluation of novel tubulin polymerization inhibitors based on pyrimidine ring skeletons” (Bioorg Med Chem Lett, 2023)
Active and inactive are the calls of the source. The rule behind the calls is not given here.

What was measured:
HepG2 [1] = experiment: Induction of apoptosis in human HepG2 cells assessed as early apoptotic cells at 200 nM incubated for 48 hrs by AnnexinV-FITC/PI staining based flow cytometric analysis (reference value: 1.83%); assay type: functional
HepG2 [2] = experiment: Induction of apoptosis in human HepG2 cells assessed as total apoptotic cells at 100 nM incubated for 48 hrs by AnnexinV-FITC/PI staining based flow cytometric analysis (reference value: 5.16%); assay type: functional
HepG2 [3] = experiment: Induction of G2/M phase cell cycle arrest in human HepG2 cells assessed as decrease in cyclinB1 protein expression by Western blot analysis; assay type: functional, cell-based; conditions: dose 50-200 nM
A549 = experiment: Antiproliferative activity against human A549 cells assessed as inhibition of cell growth; assay type: functional, cell-based
HepG2 [4] = experiment: Induction of apoptosis in human HepG2 cells assessed as late apoptotic cells at 100 nM incubated for 48 hrs by AnnexinV-FITC/PI staining based flow cytometric analysis (reference value: 3.33%); assay type: functional
Tubulin (Homo sapiens) [5] = target: T1, Tubulin (Homo sapiens) (UniProt P68371+Q9H4B7+P0DPH7+P68366+Q13509+Q71U36+P04350+Q3ZCM7+P07437+P68363+Q9BQE3+Q6PEY2+Q13885+Q9BVA1+Q9BUF5); experiment: Inhibition of tubulin polymerization (unknown origin) assessed as decrease in fluorescence intensity at 2 uM; assay type: protein-complex assay; conditions: time 1000-2000 min, TDE = time-dependent effect
HepG2 [6] = experiment: Induction of apoptosis in human HepG2 cells assessed as early apoptotic cells at 50 nM incubated for 48 hrs by AnnexinV-FITC/PI staining based flow cytometric analysis (reference value: 1.83%); assay type: functional
HepG2 [7] = experiment: Induction of apoptosis in human HepG2 cells assessed as early apoptotic cells at 100 nM incubated for 48 hrs by AnnexinV-FITC/PI staining based flow cytometric analysis (reference value: 1.83%); assay type: functional
HepG2 [8] = experiment: Induction of cell cycle arrest in human HepG2 cells assessed as decrease in G1 phase cells at 100 nM incubated for 24 hrs by PI staining based flow cytometric analysis (reference value: 73.85%); assay type: functional; set-up: scale not given: the % may be the effect or the level left
Y79 = experiment: Antiproliferative activity against human Y79 cells assessed as inhibition of cell growth; assay type: functional, cell-based
U-937 = experiment: Antiproliferative activity against human U-937 cells assessed as inhibition of cell growth; assay type: functional, cell-based
HepG2 [9] = experiment: Induction of cell cycle arrest in human HepG2 cells assessed as decrease in G1 phase cells at 200 nM incubated for 24 hrs by PI staining based flow cytometric analysis (reference value: 73.85%); assay type: functional; set-up: scale not given: the % may be the effect or the level left
HepG2 [10] = experiment: Induction of cell cycle arrest in human HepG2 cells assessed as increase in G2 phase cells at 50 nM incubated for 24 hrs by PI staining based flow cytometric analysis (reference value: 13.40%); assay type: functional
HepG2 [11] = experiment: Induction of cell cycle arrest in human HepG2 cells assessed as decrease in S phase cells at 100 nM incubated for 24 hrs by PI staining based flow cytometric analysis (reference value: 12.75%); assay type: functional; set-up: scale not given: the % may be the effect or the level left
HepG2 [12] = experiment: Induction of apoptosis in human HepG2 cells assessed as total apoptotic cells at 50 nM incubated for 48 hrs by AnnexinV-FITC/PI staining based flow cytometric analysis (reference value: 5.16%); assay type: functional
HepG2 [13] = experiment: Induction of apoptosis in human HepG2 cells assessed as viable cells at 50 nM incubated for 48 hrs by AnnexinV-FITC/PI staining based flow cytometric analysis (reference value: 92.0%); assay type: functional; conditions: read-out: Activity
HepG2 [14] = experiment: Induction of apoptosis in human HepG2 cells assessed as necrotic cells at 200 nM incubated for 48 hrs by AnnexinV-FITC/PI staining based flow cytometric analysis (reference value: 2.82%); assay type: functional
Tubulin (Homo sapiens) [15] = target: T1, Tubulin (Homo sapiens); experiment: Disruption of microtubule organization in human HepG2 cells assessed as cell shrinkage at 50 to 200 nM by immunofluorescence staining based laser confocal microscopic analysis; conditions: dose 50-200 nM
HepG2 [16] = experiment: Induction of cell cycle arrest in human HepG2 cells assessed as decrease in G1 phase cells at 50 nM incubated for 24 hrs by PI staining based flow cytometric analysis (reference value: 73.85%); assay type: functional; set-up: scale not given: the % may be the effect or the level left
HepG2 [17] = experiment: Antimigratory activity in human HepG2 cells assessed as reduction in wound closure by scratch assay; assay type: functional, cell-based; conditions: dose 50-200 nM
HepG2 [18] = experiment: Induction of apoptosis in human HepG2 cells assessed as necrotic cells at 100 nM incubated for 48 hrs by AnnexinV-FITC/PI staining based flow cytometric analysis (reference value: 2.82%); assay type: functional
HepG2 [19] = experiment: Induction of G2/M phase cell cycle arrest in human HepG2 cells assessed as increase in P21 protein expression by Western blot analysis; assay type: functional, cell-based; conditions: dose 50-200 nM
HepG2 [20] = experiment: Induction of apoptosis in human HepG2 cells assessed as viable cells at 100 nM incubated for 48 hrs by AnnexinV-FITC/PI staining based flow cytometric analysis (reference value: 92.0%); assay type: functional; conditions: read-out: Activity
Tubulin (Homo sapiens) [21] = target: T1, Tubulin (Homo sapiens); experiment: Disruption of microtubule organization in human HepG2 cells assessed as round or polygonal shaped cells at 50 to 200 nM by immunofluorescence staining based laser confocal microscopic analysis; assay type: cell-based; conditions: dose 50-200 nM
HepG2 [22] = experiment: Induction of cell cycle arrest in human HepG2 cells assessed as increase in G2 phase cells at 100 nM incubated for 24 hrs by PI staining based flow cytometric analysis (reference value: 13.40%); assay type: functional
HepG2 [23] = experiment: Induction of apoptosis in human HepG2 cells assessed as total apoptotic cells at 200 nM incubated for 48 hrs by AnnexinV-FITC/PI staining based flow cytometric analysis (reference value: 5.16%); assay type: functional
HepG2 [24] = experiment: Antiinvasive activity in human HepG2 cells assessed as decrease in cells invading inferior chamber by transwell assay; assay type: functional, cell-based; conditions: dose 50-200 nM
HepG2 [25] = experiment: Antiproliferative activity against human HepG2 cells assessed as inhibition of cell growth; assay type: functional, cell-based
HepG2 [26] = experiment: Induction of apoptosis in human HepG2 cells assessed as viable cells at 200 nM incubated for 48 hrs by AnnexinV-FITC/PI staining based flow cytometric analysis (reference value: 92.0%); assay type: functional; conditions: read-out: Activity
Tubulin (Homo sapiens) [27] = target: T1, Tubulin (Homo sapiens); experiment: Disruption of microtubule organization in human HepG2 cells assessed as diffused intracellular microtubules at 50 to 200 nM by immunofluorescence staining based laser confocal microscopic analysis; assay type: cell-based; conditions: dose 50-200 nM
HepG2 [28] = experiment: Induction of cell cycle arrest in human HepG2 cells assessed as increase in G2 phase cells at 200 nM incubated for 24 hrs by PI staining based flow cytometric analysis (reference value: 13.40%); assay type: functional
HepG2 [29] = experiment: Induction of apoptosis in human HepG2 cells assessed as necrotic cells at 50 nM incubated for 48 hrs by AnnexinV-FITC/PI staining based flow cytometric analysis (reference value: 2.82%); assay type: functional
HepG2 [30] = experiment: Induction of cell cycle arrest in human HepG2 cells assessed as decrease in S phase cells at 200 nM incubated for 24 hrs by PI staining based flow cytometric analysis (reference value: 12.75%); assay type: functional; set-up: scale not given: the % may be the effect or the level left
HepG2 [31] = experiment: Induction of apoptosis in human HepG2 cells assessed as late apoptotic cells at 50 nM incubated for 48 hrs by AnnexinV-FITC/PI staining based flow cytometric analysis (reference value: 3.33%); assay type: functional
HepG2 [32] = experiment: Induction of apoptosis in human HepG2 cells assessed as late apoptotic cells at 200 nM incubated for 48 hrs by AnnexinV-FITC/PI staining based flow cytometric analysis (reference value: 3.33%); assay type: functional
HepG2 [33] = experiment: Induction of cell cycle arrest in human HepG2 cells assessed as decrease in S phase cells at 50 nM incubated for 24 hrs by PI staining based flow cytometric analysis (reference value: 12.75%); assay type: functional; set-up: scale not given: the % may be the effect or the level left

IC50 (A549): 800 nM | inhibition (Tubulin (Homo sapiens) [5]): Tde | IC50 (U-937): 70 nM | Activity (Tubulin (Homo sapiens) [15]): Active | Activity (Tubulin (Homo sapiens) [21]): Active | IC50 (HepG2 [25]): 110 nM | Activity (Tubulin (Homo sapiens) [27]): Active
SMILES: COc1cc(Nc2nccc(-c3ccc4c(c3)OCCO4)n2)cc(OC)c1OC
Activity (HepG2 [1]): 10.9% | Activity (HepG2 [2]): 41.3% | Activity (HepG2 [3]): Dose-Dependent Effect | Activity (HepG2 [4]): 23.4% | Activity (HepG2 [6]): 21.5% | Activity (HepG2 [7]): 17.9% | Activity (HepG2 [8]): 65.52% | IC50 (Y79): 100 nM | Activity (HepG2 [9]): 63.13% | Activity (HepG2 [10]): 26.08% | Activity (HepG2 [11]): 6.95% | Activity (HepG2 [12]): 38.4% | viability at 0.05 µM (HepG2 [13]): 61.5% | Activity (HepG2 [14]): 2.13% | Activity (HepG2 [16]): 69.07% | Activity (HepG2 [17]): Dose-Dependent Effect | Activity (HepG2 [18]): 0.82% | Activity (HepG2 [19]): Dose-Dependent Effect | viability at 0.1 µM (HepG2 [20]): 57.9% | Activity (HepG2 [22]): 27.53% | Activity (HepG2 [23]): 43.6% | Activity (HepG2 [24]): Dose-Dependent Effect | viability at 0.2 µM (HepG2 [26]): 63.3% | Activity (HepG2 [28]): 35.99% | Activity (HepG2 [29]): 0.12% | Activity (HepG2 [30]): 0.88% | Activity (HepG2 [31]): 16.9% | Activity (HepG2 [32]): 33.7% | Activity (HepG2 [33]): 4.85%
